Assay results as given in patent US20230086703A1, “N-(4-(5-chloropyridin-3-yl)phenyl)-2-(2-(cyclopropanesulfonamido)pyrimidin-4-yl) butanamide derivatives and related compounds as human CTPS1 inhibitors for the treatment of proliferative diseases” (Step Pharma S.A.S., priority 2019, published 2023).

molecular target: T1, human CTPS1 (Homo sapiens, UniProt P17812); assay: Human CTPS1 enzyme inhibition, ADP-Glo Max assay; assay type: biochemical; details: ADP-Glo Max assay; Table 10; read-out: Human CTPS1 Enzyme Inhibition, IC50 grouped by potency range (CTPS1)
T1 construct: FLAG (with GG linker); His8 (with GG linker); purchased Proteros biostructures GmbH
T1 sequence (P17812 1-591): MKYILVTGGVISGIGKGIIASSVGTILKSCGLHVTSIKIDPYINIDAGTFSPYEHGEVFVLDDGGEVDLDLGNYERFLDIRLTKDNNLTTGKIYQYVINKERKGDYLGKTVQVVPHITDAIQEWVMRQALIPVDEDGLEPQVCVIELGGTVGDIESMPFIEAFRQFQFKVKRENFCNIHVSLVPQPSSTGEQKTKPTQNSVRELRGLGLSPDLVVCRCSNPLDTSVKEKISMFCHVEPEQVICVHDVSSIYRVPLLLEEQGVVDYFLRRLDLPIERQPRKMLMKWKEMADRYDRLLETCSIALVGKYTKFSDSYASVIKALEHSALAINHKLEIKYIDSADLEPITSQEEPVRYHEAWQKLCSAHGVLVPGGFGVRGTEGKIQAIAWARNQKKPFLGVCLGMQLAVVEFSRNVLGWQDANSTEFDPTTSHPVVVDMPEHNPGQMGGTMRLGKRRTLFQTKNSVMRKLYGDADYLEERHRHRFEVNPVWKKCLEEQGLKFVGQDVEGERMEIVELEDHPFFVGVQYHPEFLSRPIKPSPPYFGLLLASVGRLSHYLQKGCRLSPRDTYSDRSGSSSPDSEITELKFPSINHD
Outline: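 Read-out is ADP-Glo Max luminescence: residual ATP depleted (60 min), then produced ADP converted back to ATP for luciferase detection (60 min). Beforehand, protein and compound were mixed for 10 min at 25 °C in Tris buffer pH 8.0 with MgCl2, Tween-20 and 2 mM L-cysteine. Results expressed as percentage inhibition per concentration.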

SMILES	IC50
COc1cncc(-c2ccc(NC(=O)C(C)(C)c3csc(NS(=O)(=O)C4CC4)n3)c(F)c2)n1 [T275, 2-(2-(cyclopropanesulfonamido)thiazol-4-yl)-N-(2-fluoro-4-(6-methoxypyrazin-2-yl)phenyl)-2-methylpropanamide]	< 100 nM
CC(C)(C(=O)Nc1ccc(-c2cncc(N3CCCC3)n2)cc1)c1csc(NS(=O)(=O)C2CC2)n1 [T278, 2-(2-(cyclopropanesulfonamido)thiazol-4-yl)-2-methyl-N-(4-(6-(pyrrolidin-1-yl)pyrazin-2-yl)phenyl)propanamide]	< 100 nM
COc1cncc(-c2ccc(NC(=O)C(C)(C)c3csc(NS(=O)(=O)C4CC4)n3)c(C)c2)c1 [T285, 2-(2-(cyclopropanesulfonamido)thiazol-4-yl)-N-(4-(5-methoxypyridin-3-yl)-2-methylphenyl)-2-methylpropanamide]	< 100 nM
Cc1cc(-c2cncc(C#N)c2)ccc1NC(=O)C(C)(C)c1csc(NS(=O)(=O)C2CC2)n1 [T286, N-(4-(5-cyanopyridin-3-yl)-2-methylphenyl)-2-(2-(cyclopropanesulfonamido)thiazol-4-yl)-2-methylpropanamide]	< 100 nM
Cc1cc(-c2cncc(F)c2)ccc1NC(=O)C(C)(C)c1csc(NS(=O)(=O)C2CC2)n1 [T287, 2-(2-(cyclopropanesulfonamido)thiazol-4-yl)-N-(4-(5-fluoropyridin-3-yl)-2-methylphenyl)-2-methylpropanamide]	< 100 nM
CCOc1cc(NC(=O)C(C)(C)c2csc(NS(=O)(=O)C3CC3)n2)ccc1-c1cncc(C#N)c1 [T289, N-(4-(5-cyanopyridin-3-yl)-3-ethoxyphenyl)-2-(2-(cyclopropanesulfonamido)thiazol-4-yl)-2-methylpropanamide]	100 to 1000 nM
COc1cncc(-c2cnc(NC(=O)C(C)(C)c3csc(NS(=O)(=O)C4CC4)n3)nc2)c1 [T292, 2-(2-(cyclopropanesulfonamido)thiazol-4-yl)-N-(5-(5-methoxypyridin-3-yl)pyrimidin-2-yl)-2-methylpropanamide]	100 to 1000 nM
CC(C)(C(=O)Nc1ncc(-c2cncc(F)c2)cn1)c1csc(NS(=O)(=O)C2CC2)n1 [T293, 2-(2-(cyclopropanesulfonamido)thiazol-4-yl)-N-(5-(5-fluoropyridin-3-yl)pyrimidin-2-yl)-2-methylpropanamide]	100 to 1000 nM
CC(C)(C(=O)Nc1ncc(-c2cncc(C(F)(F)F)c2)cn1)c1csc(NS(=O)(=O)C2CC2)n1 [T294, 2-(2-(cyclopropanesulfonamido)thiazol-4-yl)-2-methyl-N-(5-(5-(trifluoromethyl)pyridin-3-yl)pyrimidin-2-yl)propanamide]	100 to 1000 nM
CCOc1cncc(-c2ccc(NC(=O)C(C)(C)c3csc(NS(=O)(=O)CC(C)C)n3)nc2)n1 [T295, N-(5-(6-ethoxypyrazin-2-yl)pyridin-2-yl)-2-methyl-2-(2-((2-methylpropyl)sulfonamido)thiazol-4-yl)propanamide]	100 to 1000 nM
CCOc1cncc(-c2ccc(NC(=O)C(C)(C)c3csc(NS(=O)(=O)C(F)(F)F)n3)cc2)n1 [T296, N-(4-(6-ethoxypyrazin-2-yl)phenyl)-2-methyl-2-(2-((trifluoromethyl)sulfonamido)thiazol-4-yl)propanamide]	100 to 1000 nM
CC(C)S(=O)(=O)Nc1nc(C(C)(C)C(=O)Nc2ccc(-c3cccnc3)cc2)cs1 [T297, 2-methyl-2-(2-((1-methylethyl)sulfonamido)thiazol-4-yl)-N-(4-(pyridin-3-yl)phenyl)propanamide]	1000 to 10000 nM
CCOc1cncc(-c2ccc(NC(=O)C(C)(C)c3csc(NS(=O)(=O)C(C)C)n3)cc2)n1 [T298, N-(4-(6-ethoxypyrazin-2-yl)phenyl)-2-methyl-2-(2-((1-methylethyl)sulfonamido)thiazol-4-yl)propanamide]	< 100 nM
CC(C)(C(=O)Nc1ccc(-c2cccnc2)cc1)c1csc(NS(=O)(=O)C2(C)CC2)n1 [T299, 2-methyl-2-(2-((1-methylcyclopropane)-1-sulfonamido)thiazol-4-yl)-N-(4-(pyridin-3-yl)phenyl)propanamide]	100 to 1000 nM
CC(C)(C(=O)Nc1ccc(-c2cncc(Cl)c2)cc1)c1csc(NS(=O)(=O)C2(C)CC2)n1 [T300, N-(4-(5-chloropyridin-3-yl)phenyl)-2-methyl-2-(2-((1-methylcyclopropane)-1-sulfonamido)thiazol-4-yl)propanamide]	100 to 1000 nM
CCOc1cncc(-c2ccc(NC(=O)C(C)(C)c3csc(NS(=O)(=O)C4(C)CC4)n3)cc2)n1 [T301, N-(4-(6-ethoxypyrazin-2-yl)phenyl)-2-methyl-2-(2-((1-methylcyclopropane)-1-sulfonamido)thiazol-4-yl)propanamide]	< 100 nM
CC(C)(C(=O)Nc1ccc(-c2cncc(C(F)(F)F)n2)cc1)c1csc(NS(=O)(=O)C2(C)CC2)n1 [T302, 2-methyl-2-(2-((1-methylcyclopropane)-1-sulfonamido)thiazol-4-yl)-N-(4-(6-(trifluoromethyl)pyrazin-2-yl)phenyl)propanamide]	100 to 1000 nM
CC(C)(C(=O)Nc1ccc(-c2cccnc2)cc1)c1csc(NS(=O)(=O)C(C)(C)C)n1 [T303, 2-(2-((1,1-dimethylethyl)sulfonamido)thiazol-4-yl)-2-methyl-N-(4-(pyridin-3-yl)phenyl)propanamide]	1000 to 10000 nM
CCOc1cncc(-c2ccc(NC(=O)C(C)(C)c3csc(NS(=O)(=O)C(C)(C)C)n3)cc2)n1 [T304, 2-(2-((1,1-dimethylethyl)sulfonamido)thiazol-4-yl)-N-(4-(6-ethoxypyrazin-2-yl)phenyl)-2-methylpropanamide]	100 to 1000 nM
CC(C)(C(=O)Nc1ccc(-c2cncc(C(F)(F)F)n2)cc1)c1csc(NS(=O)(=O)C(C)(C)C)n1 [T305, 2-(2-((1,1-dimethylethyl)sulfonamido)thiazol-4-yl)-2-methyl-N-(4-(6-(trifluoromethyl)pyrazin-2-yl)phenyl)propanamide]	100 to 1000 nM

Second part, the compound after the results:

IC50	SMILES
< 100 nM	CC(C)Oc1cncc(-c2ccc(NC(=O)C(C)(C)c3csc(NS(=O)(=O)C4CC4)n3)cc2)n1 [T272, 2-(2-(cyclopropanesulfonamido)thiazol-4-yl)-N-(4-(6-isopropoxypyrazin-2-yl)phenyl)-2-methylpropanamide]
< 100 nM	CC(C)(C(=O)Nc1ccc(-c2cncc(OC3CC3)n2)cc1)c1csc(NS(=O)(=O)C2CC2)n1 [T273, 2-(2-(cyclopropanesulfonamido)thiazol-4-yl)-N-(4-(6-cyclopropoxypyrazin-2-yl)phenyl)-2-methylpropanamide]
100 to 1000 nM	Cc1ncc(Cl)nc1-c1ccc(NC(=O)C(C)(C)c2csc(NS(=O)(=O)C3CC3)n2)cc1 [T276, N-(4-(6-chloro-3-methylpyrazin-2-yl)phenyl)-2-(2-(cyclopropanesulfonamido)thiazol-4-yl)-2-methylpropanamide]
1000 to 10000 nM	CN(C)CCOc1cncc(-c2ccc(NC(=O)C(C)(C)c3csc(NS(=O)(=O)C4CC4)n3)cc2)n1 [T279, 2-(2-(cyclopropanesulfonamido)thiazol-4-yl)-N-(4-(6-(2-(dimethylamino)ethoxy)pyrazin-2-yl)phenyl)-2-methylpropanamide]
1000 to 10000 nM	Cc1nccnc1-c1ccc(NC(=O)C(C)(C)c2csc(NS(=O)(=O)C3CC3)n2)cc1 [T280, 2-(2-(cyclopropanesulfonamido)thiazol-4-yl)-2-methyl-N-(4-(3-methylpyrazin-2-yl)phenyl)propanamide]
100 to 1000 nM	CC(=O)Nc1cncc(-c2ccc(NC(=O)C(C)(C)c3csc(NS(=O)(=O)C4CC4)n3)cc2)n1 [T281, N-(4-(6-acetamidopyrazin-2-yl)phenyl)-2-(2-(cyclopropanesulfonamido)thiazol-4-yl)-2-methylpropanamide]
100 to 1000 nM	Cc1ncc(-c2ccc(NC(=O)C(C)(C)c3csc(NS(=O)(=O)C4CC4)n3)cc2)nc1C [T282, 2-(2-(cyclopropanesulfonamido)thiazol-4-yl)-N-(4-(5,6-dimethylpyrazin-2-yl)phenyl)-2-methylpropanamide]
100 to 1000 nM	CC(C)(C(=O)Nc1ccc(-c2cncc(CO)n2)cc1)c1csc(NS(=O)(=O)C2CC2)n1 [T283, 2-(2-(cyclopropanesulfonamido)thiazol-4-yl)-N-(4-(6-(hydroxymethyl)pyrazin-2-yl)phenyl)-2-methylpropanamide]
1000 to 10000 nM	Cc1cnc(C)c(-c2ccc(NC(=O)C(C)(C)c3csc(NS(=O)(=O)C4CC4)n3)cc2)n1 [T284, 2-(2-(cyclopropanesulfonamido)thiazol-4-yl)-N-(4-(3,6-dimethylpyrazin-2-yl)phenyl)-2-methylpropanamide]
100 to 1000 nM	Cc1cc(NC(=O)C(C)(C)c2csc(NS(=O)(=O)C3CC3)n2)ccc1-c1cncc(Cl)c1 [T288, N-(4-(5-chloropyridin-3-yl)-3-methylphenyl)-2-(2-(cyclopropanesulfonamido)thiazol-4-yl)-2-methylpropanamide]
< 100 nM	CCOc1cncc(-c2ccc(NC(=O)C(C)(C)c3csc(NS(=O)(=O)C4CC4)n3)cc2)c1 [T290, 2-(2-(cyclopropanesulfonamido)thiazol-4-yl)-N-(4-(5-ethoxypyridin-3-yl)phenyl)-2-methylpropanamide]
